The record followed here is patent US12071443B2, “Prolyl hydroxylase domain-containing protein (PHD) inhibitors and uses thereof” (Insilico Medicine IP Limited, priority 2021, dated 2024).

Structures are written as SMILES.

Test [1] deals with Caco2-HIF1α-HiBiT-clone-1 cells. The test can be described thus: Caco-2 HIF1α-HiBiT assay. It is filed as cell-based. As to conditions: Homo sapiens, Caco-2; Caco2-HIF1α-HiBiT-clone-1 cells, 6 h incubation, luminescence; read-out: Caco2-HIF1α-HiBit assay - EC50. (HiBiT is a short tag that completes a luciferase, so light tracks the accessible tagged protein.)
Test [2] concerns the target PHD2 (Homo sapiens, UniProt Q9GZT9). The test can be described thus: PHD2 enzymatic assay (AlphaScreen). The test is classed as biochemical. As to conditions: PHD2 enzyme, AlphaScreen, IC50 from % inhibition; read-out: PHD2. On the technique in general: In Alpha technology, singlet oxygen from a donor bead excites a nearby acceptor bead.

Sequence of PHD2 (Q9GZT9 whole entry): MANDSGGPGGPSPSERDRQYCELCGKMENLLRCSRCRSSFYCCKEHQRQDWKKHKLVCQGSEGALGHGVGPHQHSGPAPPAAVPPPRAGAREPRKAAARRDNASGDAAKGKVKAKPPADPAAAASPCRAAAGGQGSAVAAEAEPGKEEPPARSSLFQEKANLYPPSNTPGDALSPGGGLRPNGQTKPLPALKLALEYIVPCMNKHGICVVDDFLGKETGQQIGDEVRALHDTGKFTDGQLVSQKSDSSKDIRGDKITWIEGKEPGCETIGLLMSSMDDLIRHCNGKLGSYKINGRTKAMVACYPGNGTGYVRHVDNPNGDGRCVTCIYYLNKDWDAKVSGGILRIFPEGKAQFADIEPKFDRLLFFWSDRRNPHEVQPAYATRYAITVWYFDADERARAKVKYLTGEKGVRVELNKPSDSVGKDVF

For orientation: EC50 means the concentration that produces a half-maximal response. Consider `COC(=O)[C@H]1CN(c2ccc3c(O)c(C(=O)NCc4ccc(C#N)nc4)ncc3n2)CCO1` [Example 92], for which, in test [1], the EC50 lay within 5 to 7.5 µM. In test [2], the IC50 was less than 0.005 µM.

Take `CC(NC(=O)c1ncc2nc(N3CCOCC3)ccc2c1O)c1ccc(C#N)nc1` (centres unmarked) [Example 21]: in test [1], the EC50 fell in the range of 10 to 100 µM. Further, the IC50 in test [2] fell in the range of 0.02 to 0.1 µM.

For `N#Cc1ccc(CNC(=O)c2ncc3nc(N4CCNCC4)ccc3c2O)c(Cl)c1` [Example 5, N-(2-chloro-4-cyanobenzyl)-5-hydroxy-2-(piperazin-1-yl)-1,7-naphthyridine-6-carboxamide], in test [1], the EC50 is 7.5 to 10 µM. For the same compound, in test [2], the IC50 was in the range of 0.005 to 0.02 µM.

On to `CC(C)OC(=O)N1CCN(c2ccc3c(O)c(C(=O)NCc4ccc(C#N)nc4)ncc3n2)CC1` [Example 138], for which the EC50 in test [1] was in the range of 2.5 to 5 µM. Also, the IC50 in test [2] is less than 0.005 µM.

For the compound `CC1(C)CCN(c2ccc3c(O)c(C(=O)NCc4ccc(C#N)nc4)ncc3n2)CC1` [Example 155], the EC50 in test [1] lay in the range of 7.5 to 10 µM.

In the case of `CN1CCN(c2ccc3c(O)c(C(=O)NCc4ccc(C#N)nc4)ncc3n2)CC1=O` [Example 66], the EC50 in test [1] was 10 to 100 µM. Moreover, the IC50 in test [2] is less than 0.005 µM.

As for `N#Cc1cnc(CNC(=O)c2ncc3nc(N4CCOCC4)ccc3c2O)cn1` [Example 33], the EC50 in test [1] lay in the range of 5 to 7.5 µM.

Take `N#Cc1ccc(CNC(=O)c2ncc3nc(N4CCN(C5CC5)[C@H](CO)C4)ccc3c2O)c(Cl)c1` [Example 71]: the EC50 in test [1] is 2.5 to 5 µM. In addition, the IC50 in test [2] was in the range of 0.005 to 0.02 µM.

Turning to `CC(C)(C)OC(=O)N1CCN(c2ccc3c(O)c(C(=O)NCc4ccc(C#N)nc4)ncc3n2)C[C@@H]1CO` [Example 47], the EC50 in test [1] is less than 2.5 µM. For the same compound, in test [2], the IC50 is less than 0.005 µM.

Regarding `CN1CCN(c2ccc3c(O)c(C(=O)NCc4ccc(C#N)cc4Cl)ncc3n2)C[C@@H]1CO` [Example 59, (R)—N-(2-chloro-4-cyanobenzyl)-5-hydroxy-2-(3-(hydroxymethyl)-4-methylpiperazin-1-yl)-1,7-naphthyridine-6-carboxamide], in test [1], the EC50 is 2.5 to 5 µM. Besides, in test [2], the IC50 was less than 0.005 µM.

Take `C[C@H]1CN(C(=O)OC(C)(C)C)CCN1c1ccc2c(O)c(C(=O)NCc3ccc(C#N)nc3)ncc2n1` [Example 139]: the EC50 in test [1] fell in the range of 2.5 to 5 µM. Also, in test [2], the IC50 is less than 0.005 µM.

As for `N#Cc1ccc(CNC(=O)c2ncc3nc(N4CC[C@@H](CO)C4)ccc3c2O)cn1` [Example 42], in test [1], the EC50 is 2.5 to 5 µM. Besides, the IC50 in test [2] is less than 0.005 µM.

As for `N#Cc1ccc(COC(=O)c2ncc3nc(N4CC[C@@H](O)C4)ccc3c2O)cn1` [Example 15, (6-cyanopyridin-3-yl)methyl (R)-5-hydroxy-2-(3-hydroxypyrrolidin-1-yl)-1,7-naphthyridine-6-carboxylate], the EC50 in test [1] was in the range of 10 to 100 µM. Further, in test [2], the IC50 was 1 to 100 µM.

In the case of `CC(=O)N1CCN(c2ccc3c(O)c(C(=O)NCc4ccc(C#N)cc4Cl)ncc3n2)C[C@@H]1CO` [Example 63, (R)-2-(4-acetyl-3-(hydroxymethyl)piperazin-1-yl)-N-(2-chloro-4-cyanobenzyl)-5-hydroxy-1,7-naphthyridine-6-carboxamide], the EC50 in test [1] was 7.5 to 10 µM. The IC50 in test [2] lay within 0.005 to 0.02 µM.

On to `CC(C)(C)OC(=O)N[C@@H]1CCN(c2ccc3c(O)c(C(=O)NCc4ccc(C#N)nc4)ncc3n2)C1` [Example 140], for which the EC50 in test [1] is 2.5 to 5 µM. The IC50 in test [2] lay in the range of 0.005 to 0.02 µM.

As to `N#Cc1ccc(CNC(=O)c2ncc3nc(N4CC(O)(CO)C4)ccc3c2O)cn1` [Example 119], the EC50 in test [1] lay in the range of 10 to 100 µM. For the same compound, in test [2], the IC50 was less than 0.005 µM.

As for `N#Cc1ccc(CNC(=O)c2ncc3nc(N4CCN[C@@H](C(=O)O)C4)ccc3c2O)cn1` [Example 51, (R)-4-(6-(((6-cyanopyridin-3-yl)methyl)carbamoyl)-5-hydroxy-1,7-naphthyridin-2-yl)piperazine-2-carboxylic acid], the EC50 in test [1] was 10 to 100 µM. In test [2], the IC50 is less than 0.005 µM.

Turning to `C[C@@H]1CN(C(=O)OC(C)(C)C)CCN1c1ccc2c(O)c(C(=O)NCc3ccc(C#N)nc3)ncc2n1` [Example 150], in test [1], the EC50 was less than 2.5 µM. For the same compound, the IC50 in test [2] is less than 0.005 µM.

In the case of `CC(C)(C)OC(=O)NC1CN(c2ccc3c(O)c(C(=O)NCc4ccc(C#N)nc4)ncc3n2)C1` [Example 127], the EC50 in test [1] was less than 2.5 µM. In addition, in test [2], the IC50 was less than 0.005 µM.

For the compound `N#Cc1ccc(CNC(=O)c2ncc3nc(N4CC[C@@H](O)C4)ccc3c2O)c(Cl)c1` [Example 6, (R)—N-(2-chloro-4-cyanobenzyl)-5-hydroxy-2-(3-hydroxypyrrolidin-1-yl)-1,7-naphthyridine-6-carboxamide], the EC50 in test [1] was in the range of 2.5 to 5 µM. Moreover, the IC50 in test [2] was 0.005 to 0.02 µM.

Regarding `COC(=O)[C@H]1CN(c2ccc3c(O)c(C(=O)NCc4ccc(C#N)nc4)ncc3n2)CCN1` [Example 50, methyl (R)-4-(6-(((6-cyanopyridin-3-yl)methyl)carbamoyl)-5-hydroxy-1,7-naphthyridin-2-yl)piperazine-2-carboxylate], the EC50 in test [1] fell in the range of 10 to 100 µM. Moreover, the IC50 in test [2] was less than 0.005 µM.

As for `CC(C)(C)OC(=O)N1CCN(c2ccc3c(O)c(C(=O)NCc4cnc(C#N)cn4)ncc3n2)CC1` [Example 134, tert-butyl 4-(6-(((5-cyanopyrazin-2-yl)methyl)carbamoyl)-5-hydroxy-1,7-naphthyridin-2-yl)piperazine-1-carboxylate], in test [1], the EC50 fell in the range of 10 to 100 µM.

On to `CC(C)(C)OC(=O)N1CCN(c2ccc3c(O)c(C(=O)NCc4ccc(C#N)nc4)ncc3n2)C(=O)C1` [Example 101], for which, in test [1], the 50% effective concentration (EC50) is 2.5 to 5 µM. The IC50 in test [2] was less than 0.005 µM.

Take `CC(C)(C)OC(=O)N[C@H]1CC(=O)N(c2ccc3c(O)c(C(=O)NCc4ccc(C#N)nc4)ncc3n2)C1` [Example 143]: the EC50 in test [1] is less than 2.5 µM. In addition, the IC50 in test [2] is less than 0.005 µM.

As for `CP1(=O)CCN(c2ccc3c(O)c(C(=O)NCc4ccc(C#N)cc4Cl)ncc3n2)CC1` [Example 16], the EC50 in test [1] fell in the range of 10 to 100 µM. Besides, the IC50 in test [2] is less than 0.005 µM.

With `C[C@@H](NC(=O)c1ncc2nc(N3CCOCC3)ccc2c1O)c1ccc(C#N)cc1` [Example 18], in test [1], the EC50 was 5 to 7.5 µM. Besides, the IC50 in test [2] was 0.005 to 0.02 µM.

Consider `N#Cc1ccc(CNC(=O)c2ncc3nc(N4CC[C@H](C(=O)N5CCNCC5)C4)ccc3c2O)cn1` [Example 41, (S)—N-((6-cyanopyridin-3-yl)methyl)-5-hydroxy-2-(3-(piperazine-1-carbonyl)pyrrolidin-1-yl)-1,7-naphthyridine-6-carboxamide], for which, in test [1], the half-maximal effective concentration (EC50) was 10 to 100 µM. Moreover, the IC50 in test [2] is less than 0.005 µM.

Turning to `Cc1cc(C#N)ncc1CNC(=O)c1ncc2nc(N3CCOCC3)ccc2c1O` [Example 20], in test [1], the EC50 lay within 2.5 to 5 µM. Further, in test [2], the IC50 was less than 0.005 µM.

In the case of `COC(=O)C1CN(c2ccc3c(O)c(C(=O)NCc4ccc(C#N)nc4)ncc3n2)C1` [Example 84], in test [1], the EC50 is 5 to 7.5 µM. In test [2], the IC50 is less than 0.005 µM.

Consider `N#Cc1ccc(CNC(=O)c2ncc3nc(N4CCOC4=O)ccc3c2O)cn1` [Example 103], for which the EC50 in test [1] lay in the range of 2.5 to 5 µM. Also, in test [2], the IC50 was less than 0.005 µM.

As to `N#Cc1ccc(CNC(=O)c2ncc3nc(N4CCN[C@@H](CO)C4)ccc3c2O)c(Cl)c1` [Example 60, (R)—N-(2-chloro-4-cyanobenzyl)-5-hydroxy-2-(3-(hydroxymethyl)piperazin-1-yl)-1,7-naphthyridine-6-carboxamide], the EC50 in test [1] lay in the range of 10 to 100 µM. In test [2], the IC50 was 0.005 to 0.02 µM.

For the compound `CC(C)(C)OC(=O)NC1CCN(c2ccc3c(O)c(C(=O)NCc4ccc(C#N)nc4)ncc3n2)CC1` [Example 123], the EC50 in test [1] was 2.5 to 5 µM. The IC50 in test [2] was less than 0.005 µM.

For `N#Cc1ccc(CNC(=O)c2ncc3nc(N4CCOCC4)ncc3c2O)cn1` [Example 31], in test [1], the EC50 was 10 to 100 µM.

In the case of `N#Cc1ccc(CNC(=O)c2ncc3nc(N4CCN(CCO)CC4)ccc3c2O)cn1` [Example 74], in test [1], the EC50 fell in the range of 2.5 to 5 µM. Further, the IC50 in test [2] is less than 0.005 µM.

Take `COc1c(C(=O)NCc2ccc(C#N)nc2)ncc2nc(N3CCOCC3)ccc12` [Example 163, N-((6-cyanopyridin-3-yl)methyl)-5-methoxy-2-morpholino-1,7-naphthyridine-6-carboxamide]: in test [2], the IC50 lay in the range of 0.1 to 1 µM.

Turning to `N#Cc1ccc(CNC(=O)c2ncc3nc(N4CCC(N)CC4)ccc3c2O)cn1` [Example 124, 2-(4-aminopiperidin-1-yl)-N-((6-cyanopyridin-3-yl)methyl)-5-hydroxy-1,7-naphthyridine-6-carboxamide], the EC50 in test [1] was 10 to 100 µM. Moreover, the IC50 in test [2] was less than 0.005 µM.

Turning to `CC1(OC(=O)N2CCN(c3ccc4c(O)c(C(=O)NCc5ccc(C#N)nc5)ncc4n3)CC2)CC1` [Example 137], the EC50 in test [1] was less than 2.5 µM. Further, the IC50 in test [2] is less than 0.005 µM.

Regarding `C[C@@H]1CN(c2ccc3c(O)c(C(=O)NCc4ccc(C#N)nc4)ncc3n2)CCN1C(=O)OC(C)(C)C` [Example 149], the EC50 in test [1] was in the range of 2.5 to 5 µM. Moreover, in test [2], the IC50 was less than 0.005 µM.

As for `CC(C)(C)OC(=O)N1CCN(c2ccc3c(O)c(C(=O)NCc4cnc(C#N)nc4)ncc3n2)CC1` [Example 133], in test [1], the EC50 was 2.5 to 5 µM. Further, the IC50 in test [2] lay in the range of 0.005 to 0.02 µM.

Turning to `CC(C)(C)OC(=O)N[C@H]1CCN(c2ccc3c(O)c(C(=O)NCc4ccc(C#N)nc4)ncc3n2)C1` [Example 125], the EC50 in test [1] was less than 2.5 µM. Moreover, the IC50 in test [2] is less than 0.005 µM.

Regarding `CC(C)OC(=O)CC1CN(c2ccc3c(O)c(C(=O)NCc4ccc(C#N)nc4)ncc3n2)C1` [Example 154], the 50% effective concentration (EC50) in test [1] is less than 2.5 µM.

Consider `Cc1cc(C#N)ncc1CNC(=O)c1ncc2nc(N3CCN(C(=O)OC(C)(C)C)CC3)ccc2c1O` [Example 135], for which the EC50 in test [1] is less than 2.5 µM.

On to `CC[C@H]1CN(C(=O)OC(C)(C)C)CCN1c1ccc2c(O)c(C(=O)NCc3ccc(C#N)nc3)ncc2n1` [Example 151], for which, in test [1], the EC50 lay within 2.5 to 5 µM.

As to `N#Cc1ccc(CNC(=O)c2ncc3nc(N4CCNCC4=O)ccc3c2O)cn1` [Example 102, N-((6-cyanopyridin-3-yl)methyl)-5-hydroxy-2-(2-oxopiperazin-1-yl)-1,7-naphthyridine-6-carboxamide], in test [2], the IC50 was 0.1 to 1 µM.

On to `CCOC(=O)CC1CN(c2ccc3c(O)c(C(=O)NCc4ccc(C#N)nc4)ncc3n2)C1` [Example 153], for which, in test [1], the EC50 fell in the range of 2.5 to 5 µM.
